Reference: patent US10000452B1, “Quinolone-based compounds, formulations, and uses thereof” (University of South Florida, priority 2016, dated 2018)
In brackets after ≈: the same amount, converted by molar mass. Several values for one entry are separate records, joined by “and”; a condition that tells them apart may be missing. Equal values may be shown once. Read-outs that look alike come from different tables or passages of the source.

Key:
[1] = test system: malarial strain TM90-C2B (mefloquine, chloroquine, atovaquone, and pyrimethamine-resistant); assay: microbe, parasite or virus in culture; assay type: cell-based, P. falciparum; settings: Plasmodium falciparum
Excerpt: Ideally, the RI of a compound should lie between 0.3 and 3.0 in order to avoid rapidly inducing resistance in the parasite. […]

J774 mammalian cells = assay: cytotoxicity to J774 cells; assay type: cell-based; settings: Mus musculus
Protocol: This allowed a simplified method for comparing the different assays being simultaneously run. Additionally, each compound was also tested for cytotoxicity using mammalian J774 cell lines in a 96-well plate format.^12-14, 16

P. berghei-GFP parasites = assay: modified Thompson test; assay type: in vivo, P. berghei; mice; settings: for No. of Cures: survival to day 30 PI with parasitemia <1%
Protocol: Mice were infected with 1×10^6 P. berghei-GFP parasites and compounds were dosed orally on days 3, 4 and 5 PI with a dose of 10 mg/kg of compound suspended or dissolved in HEC/Tween or PEG 400. Parasitemia was observed by flow cytometry on days 3, 6, 9, 13, 21, and 30 PI. Compounds with animal survival up to day 30 PI and parasitemia levels of less than 1% on day 30 PI were considered to be cures. Lastly, animals with more than 40% parasitemia levels were euthanized.
On days 3, 6, 9, 13, 21, and 30 PE, parasitemia was monitored by Giemsa-stained blood smears. Both compounds were evaluated by the reduction of parasitemia on day 6 PE and the survival up to day 30 PE.

[2] = test system: malarial strain W2 (pyrimethamine and chloroquine-resistant); assay: in vitro antimalarial activity against multidrug resistant strain W2; assay type: cell-based, P. falciparum; settings: Plasmodium falciparum
[3] = test system: P. berghei sporozoites expressing luciferase; assay: in vitro liver stage activity, luciferase sporozoites infecting HEPG2 hepatoma cells; assay type: cell-based; settings: Plasmodium berghei
Pb-infected mice = assay: in vivo efficacy scouting assay against blood stages; design: species or system P. berghei; mice; settings: for inhibition in vivo at 50 mg/kg: Plasmodium berghei, po, 144 h, read-out: % Inhibition Day 6 PI; for activities in these scout assays / % Inhibition Day 3 PI / % Inhibition Day 6 PI: single oral 50 mg/kg dose 1 day PI; for activities in these scout assays: result in words; for % Inhibition Day 3 PI / % Inhibition Day 6 PI: vs untreated animals
Protocol: The screening involved a single oral 50 mg/kg dose 1 day post infection (PI) and an assessment of parasitemia on days 3 PI and 6 PI (Table 6).
The screening was performed by treating two infected mice with a single 50 mg/kg oral dose of test compound suspended in PEG400 on day 1 postexposure (PE) followed by assessing parasitemia on days 3 and 6 PE.

[4] = aqueous solubility (LC/MS- or HPLC-based assay); assay type: physicochemical
How it was run: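 Aqueous solubility and log D (pH 7.4) determined by LC/MS-based assays; solubility examined at more than one pH.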

[5] = lipophilicity log D at pH 7.4; assay type: physicochemical; settings: octanol/water
Excerpt: Furthermore, to profile the properties of the piperazinyl-4(1H)-quinolones, and to identify potential limitations, aqueous solubility and lipophilicity log D were experimentally determined via LC/MS-based assays as described by the Manetsch laboratory previously^8,10,31,32 (Tables 9-12). Encouragingly, the piperazinyl-4(1H)-quinolones were much more soluble than the previously described phenoxyethoxy-4(1H)-quinolone analogues.^19 As expected, the solubility of all compounds was affected by pH, with better solubility under more acidic conditions.
In parallel to testing the compounds for in vitro antimalarial activity, a limited structure-property relationship (SPR) study focusing on log D and aqueous solubility was conducted to assess potential physiochemical liabilities (FIG. 22). […] For these reasons, physicochemical properties were not strongly considered as selection criteria for in vivo efficacy studies.

[6] = 10 mg/kg oral on days 3, 4 and 5 PI
[7] = TM90, read-out: EC50 TM90-C2B (nM)
[8] = Example 2: two mice, single 50 mg/kg oral dose in PEG400 on day 1 PE
[9] = aqueous solution (buffer not named), pH 2, simulated gastric fluid, pH 2.0, read-out: Solubility pH 2.0
[10] = aqueous solution (buffer not named), pH 6.5, aqueous buffer, pH 6.5, read-out: Solubility pH 6.5

Compound: O=C1C(O)=C([C@H]2CC[C@H](c3ccc(Cl)cc3)CC2)C(=O)c2ccccc21 [Atovaquone, atovaquone, reference compound]
- EC50 ([1]; TM90, read-out: EC50 TM90-C2B): 18400 nM
- EC50 (J774 mammalian cells; J774, cytotoxicity, 96 well plate format, read-out: EC50 J774): 28.3 µM
- No. of Cures (P. berghei-GFP parasites; [6]): 5/5

Compound: CCCCc1cc2c(=O)c(C(=O)OC)c[nH]c2cc1OCCOc1ccccc1 [Compound 6b, Methyl 6-Butyl-4-oxo-7-(2-phenoxyethoxy)-1,4-dihydroquinoline-3-carboxylate, reference compound]
- EC50 ([2]; read-out: EC50 W2): 0.039 nM
- EC50 [1, 7]: 7.89 nM
- EC50 ([3]; HepG2, text values printed in pM): 52 pM
- % inhibition on day 3 PE (Pb-infected mice; [8]): 76.9%
- % inhibition on day 6 PE (Pb-infected mice; [8]): 49%
- day mice were sacrificed (P. berghei-GFP parasites; Example 2: 10 mg/kg oral days 3, 4, 5, controls sacrificed day 13): 13
- % inhibition on day 6 PE (P. berghei-GFP parasites; Example 2: 10 mg/kg oral days 3, 4, 5 in HEC/Tween, Giemsa-stained smears): no inhibition

Compound: COC(=O)c1c[nH]c2cc(CN3CCN(c4ccc(C(F)(F)F)cc4)CC3)c(OC)cc2c1=O [Compound 8ab, Methyl 6-methoxy-4-oxo-7-((4-(4-(trifluoromethyl)phenyl)piperazin-1-yl)methyl)-1,4-dihydroquinoline-3-carboxylate]
- EC50 ([2]; read-out: EC50 W2 (nM)): 6.42 nM
- EC50 ([3]; HEPG2 cells): 9580 pM
- EC50 (J774 mammalian cells; J774, read-out: EC50 J774 (μM)): > 20 µM
- solubility ([4]; aqueous solution, pH 2, simulated gastric fluid, pH 2.0, read-out: Solubility pH 2.0): 1 to 19.9 µM (≈ 0.475 to 9.46 µg/mL)
- solubility ([4]; aqueous solution, pH 6.5, aqueous buffer, pH 6.5, read-out: Solubility pH 6.5): 1 to 19.9 µM (≈ 0.475 to 9.46 µg/mL)
- chromatographic logD [5]: 1.29
- inhibition in vivo at 50 mg/kg (Pb-infected mice): > 85%
- activities in these scout assays (Pb-infected mice): excellent activities
- % Inhibition Day 3 PI (Pb-infected mice): full inhibition
- % Inhibition Day 6 PI (Pb-infected mice): completely inhibited parasite growth
- No. of Cures (P. berghei-GFP parasites; [6]): 3 of the 5 and 3/5

Compound: O=c1c(Br)c[nH]c2cc(CN3CCN(c4ccc(F)cc4)CC3)ccc12 [Compound 8ak, 3-Bromo-7-((4-(4-fluorophenyl)piperazin-1-yl)methyl) quinolin-4(1H)-one]
- EC50 ([2]; read-out: EC50 W2 (nM)): 812 nM
- EC50 [1, 7]: 2430 nM
- EC50 ([3]; HEPG2 cells): 858 pM
- EC50 (J774 mammalian cells; J774, read-out: EC50 J774 (μM)): > 20 µM
- solubility [4, 9]: ≥ 80 µM
- solubility [4, 10]: 20 to 39.9 µM (≈ 8.33 to 16.6 µg/mL)
- chromatographic logD [5]: 2.91
- No. of Cures (P. berghei-GFP parasites; [6]): 0/5
- % Inhibition Day 6 PI (P. berghei-GFP parasites; 10 mg/kg oral on days 3, 4 and 5 PI, vs untreated control animals): low inhibition

Compound: Cc1[nH]c2cc(CN3CCN(c4ccc(F)cc4)CC3)ccc2c(=O)c1Br [Compound 8an, 3-Bromo-7-((4-(4-fluorophenyl)piperazin-1-yl)methyl)-2-methylquinolin-4(1H)-one]
- EC50 ([2]; read-out: EC50 W2 (nM)): 25.1 nM
- EC50 [1, 7]: 25.5 nM
- EC50 ([3]; HEPG2 cells): 26200 pM
- EC50 (J774 mammalian cells; J774, read-out: EC50 J774 (μM)): > 20 µM
- solubility [4, 9]: ≥ 80 µM
- solubility [4, 10]: 1 to 19.9 µM (≈ 0.43 to 8.56 µg/mL)
- chromatographic logD [5]: 2.83
- inhibition in vivo at 50 mg/kg (Pb-infected mice): > 85%
- activities in these scout assays (Pb-infected mice): excellent activities
- % Inhibition Day 3 PI (Pb-infected mice): full inhibition
- % Inhibition Day 6 PI (Pb-infected mice): completely inhibited parasite growth
- Avg. Day of Death (P. berghei-GFP parasites; [6]): 13
- No. of Cures (P. berghei-GFP parasites; [6]): 0/5
- inhibition in vivo at 10 mg/kg (P. berghei-GFP parasites; Plasmodium berghei, in Mus musculus, 144 h, 10 mg/kg oral on days 3, 4 and 5 PI, vs untreated control animals, read-out: % Inhibition Day 6 PI): 90.9%
